Data published in patent publication EP2915814A2, “Crystalline salts of sitagliptin” (priority 2008, dated 2010).
Structures can show the parent of a compound that is named as a salt. Where two headings read alike, the source gives them in different places. Marks after values point to notes of the source that are not given here.

What was measured:
[1] = Dissolution of salts (done on 1 capsule each); assay type: physicochemical; conditions: for Dissolution in capsule in acetate buffer pH 4.5 medium at 50 rpm at 10 min (% release as free base) / Dissolution in capsule in acetate buffer pH 4.5 medium at 50 rpm at 30 min (% release as free base): acetate buffer pH 4.5, 50 rpm; for Dissolution in capsule in phosphate buffer pH 7.4 medium at 50 rpm at 10 min (% release as free base) / Dissolution in capsule in phosphate buffer pH 7.4 medium at 50 rpm at 30 min (% release as free base): phosphate buffer pH 7.4, 50 rpm
Source text: Table 28: Dissolution results of salts (Done on 1 capsule each)

[2] = Hygroscopicity studies (water content after storage at 43 %, 75 % and 93 % relative humidity); assay type: physicochemical; conditions: for Hygroscopicity 2 weeks 43 % rh: 2 weeks at 43 % rh; for Hygroscopicity 2 weeks 43 % rh / Hygroscopicity 2 weeks 75 % rh / Hygroscopicity 2 weeks 93 % rh: % Equilibrium moisture content, ss = semi solid state of sample, β = solid first changed into liquid and solidified again; for Hygroscopicity 2 weeks 75 % rh: 2 weeks at 75 % rh; for Hygroscopicity 2 weeks 93 % rh: 2 weeks at 93 % rh; for Initial water content: initial sample; for change during the hygroscopicity studies: 43 %, 75 % and 93 % relative humidity, confirmed by DSC of samples kept at 93 % relative humidity for 2 weeks
Source text: The salts of the present invention and the free base were studied under three different humidity conditions (43 % relative humidity, 75 % relative humidity, and 93 % relative humidity).

[3] = Evaluation of sitagliptin salts for processability; conditions: for Appearance: powder
Source text: Table 29: Evaluation of different Sitagliptin salts for processability

[4] = Stability studies (storage at 60 °C in closed bottles or at 40 °C / 75 % RH in an open bottle; related substances by HPLC); conditions: for Related Substances 2 W 40°C/75 % RH open / Related Substances 2 W 60°C closed: 2 weeks, 20160 min; for Related Substances 4 w 40°C/75 % RH closed / Related Substances 4 w 40°C/75 % RH open / Related Substances 4 w 60°C Closed bottle: 4 weeks, 40320 min; for Related Substances 12 weeks 40°C/75 % RH closed bottle / Related Substances 12 weeks 40°C/75 % RH open bottle: 120960 min; for Initial Related Substances: before storage; for Related Substances 4 w 60°C Closed bottle / Related Substances 12 weeks 40°C/75 % RH closed bottle / stability (degradation, related substances by HPLC): closed bottle
pH of aqueous solution = assay type: physicochemical; conditions: 2 % aqueous solution
[5] = Solubility in water / aqueous solution; assay type: physicochemical; conditions: compared to other known salts of sitagliptin
[6] = solid; for Related Substances 4 w 40°C/75 % RH closed / Related Substances 4 w 40°C/75 % RH open / Related Substances 4 w 60°C Closed bottle: 672 h; for Related Substances 12 weeks 40°C/75 % RH closed bottle / Related Substances 12 weeks 40°C/75 % RH open bottle: 2016 h; for Related Substances 2 W 40°C/75 % RH open / Related Substances 2 W 60°C closed: 336 h; for Related Substances 2 W 60°C closed / Related Substances 4 w 60°C Closed bottle: closed bottle

With N[C@@H](CC(=O)N1CCn2c(nnc2C(F)(F)F)C1)Cc1cc(F)c(F)cc1F [HCl II] as the compound, how does the “Dissolution in capsule in acetate buffer pH 4.5 medium at 50 rpm at 10 min (% release as free base)” value [1] read?
Its value is 93.89%.

What about the “Dissolution in capsule in acetate buffer pH 4.5 medium at 50 rpm at 30 min (% release as free base)” value [1] of the same compound?
The value was 100%.

And the “Dissolution in capsule in pH 6.8 buffer at 50 rpm at 10 min (% release as free base)” value [1]?
The value was 90.13%.

And the “Dissolution in capsule in pH 6.8 buffer at 50 rpm at 30 min (% Release as free base)” value [1]?
The value was 91.21%.

And the “Dissolution in capsule in phosphate buffer pH 7.4 medium at 50 rpm at 10 min (% release as free base)” value [1]?
Its value is 93.63%.

And the “Dissolution in capsule in phosphate buffer pH 7.4 medium at 50 rpm at 30 min (% release as free base)” value [1]?
The value was 99.67%.

What does the source list for N[C@@H](CC(=O)N1CCn2c(nnc2C(F)(F)F)C1)Cc1cc(F)c(F)cc1F [M: Phosphate]?
Hygroscopicity 2 weeks 43 % rh [2]: 3.69%; Hygroscopicity 2 weeks 75 % rh [2]: 3.67%; Hygroscopicity 2 weeks 93 % rh [2]: 3.73%; Initial water content ([2]; before storage): 3.59%; Flowability [3]: Good; Poured density, m/V0 [3]: 0.52 g/ml; Sticking tendency [3]: None; Tapped density, m/V1250 [3]: 0.57 g/mL; Apparent Volume V0 [3]: 190 mL; Apparent Volume V10 [3]: 185 mL; Apparent Volume V500 [3]: 175 mL; Apparent Volume V1250 [3]: 174 mL; Appearance [3]: White to off-white powder, fine powder, few agglomerates.

Which “Hygroscopicity 2 weeks 43 % rh” value [2] does the source give for N[C@@H](CC(=O)N1CCn2c(nnc2C(F)(F)F)C1)Cc1cc(F)c(F)cc1F [N: Mesylate II] here?
The value was 2.89%.

And the “Hygroscopicity 2 weeks 75 % rh” value [2]?
Its value is 3.37%.

And the “Hygroscopicity 2 weeks 93 % rh” value [2]?
The value was 4.04%.

And the Initial water content ([2]; before storage)?
Its Initial water content is 2.08%.

What about the “Related Substances 2 W 40°C/75 % RH open” value [4] of the same compound?
The value was 0.16%.

And the “Related Substances 2 W 60°C closed” value [4]?
Its value is 0.16%.

What about the “Related Substances 4 w 40°C/75 % RH closed” value [4] of the same compound?
Its value is 0.08%.

And the “Related Substances 4 w 40°C/75 % RH open” value [4]?
Its value is 0.08%.

And the “Related Substances 4 w 60°C Closed bottle” value [4]?
Its value is 0.12%.

And the “Related Substances 12 weeks 40°C/75 % RH closed bottle” value [4]?
The value was 0.07%.

What about the “Related Substances 12 weeks 40°C/75 % RH open bottle” value [4] of the same compound?
Its value is 0.11%.

And the “Initial Related Substances” value [4]?
Its value is 0.11%.

What does the source list for N[C@@H](CC(=O)N1CCn2c(nnc2C(F)(F)F)C1)Cc1cc(F)c(F)cc1F [O: Sulfate II]?
Hygroscopicity 2 weeks 43 % rh [2]: 2.59%; Hygroscopicity 2 weeks 75 % rh [2]: 7.1%; Hygroscopicity 2 weeks 93 % rh [2]: 7.33%; Initial water content ([2]; before storage): 1.88%; Flowability [3]: Good; Poured density, m/V0 [3]: 0.483 g/ml; Sticking tendency [3]: Very low; Tapped density, m/V1250 [3]: 0.508 g/mL; Apparent Volume V0 [3]: 40 mL; Apparent Volume V10 [3]: 40 mL; Apparent Volume V500 [3]: 38 mL; Apparent Volume V1250 [3]: 38 mL; Appearance [3]: White to off-white powder with big, coarse and hard particles.; Related Substances 2 W 40°C/75 % RH open [4]: 0.23%; Related Substances 2 W 60°C closed [4]: 0.20%; Related Substances 4 w 40°C/75 % RH closed [4]: 0.24%; Related Substances 4 w 40°C/75 % RH open [4]: 0.36%; Related Substances 4 w 60°C Closed bottle [4]: 0.31%; Related Substances 12 weeks 40°C/75 % RH closed bottle [4]: 0.25%; Related Substances 12 weeks 40°C/75 % RH open bottle [4]: 0.46%; Initial Related Substances [4]: 0.20%

What does the source list for N[C@@H](CC(=O)N1CCn2c(nnc2C(F)(F)F)C1)Cc1cc(F)c(F)cc1F [Phosphate H2O Ref]?
Dissolution in capsule in acetate buffer pH 4.5 medium at 50 rpm at 10 min (% release as free base) [1]: 48.08%; Dissolution in capsule in acetate buffer pH 4.5 medium at 50 rpm at 30 min (% release as free base) [1]: 98.48%; Dissolution in capsule in pH 6.8 buffer at 50 rpm at 10 min (% release as free base) [1]: 86.65%; Dissolution in capsule in pH 6.8 buffer at 50 rpm at 30 min (% Release as free base) [1]: 91.12%; Dissolution in capsule in phosphate buffer pH 7.4 medium at 50 rpm at 10 min (% release as free base) [1]: 80.81%; Dissolution in capsule in phosphate buffer pH 7.4 medium at 50 rpm at 30 min (% release as free base) [1]: 99.18%; Dissolution in capsule in water medium at 50 rpm at 10 min (% release as free base) [1]: 46.63%; Dissolution in capsule in water medium at 50 rpm at 30 min (% release as free base) [1]: 96.30%

For N[C@@H](CC(=O)N1CCn2c(nnc2C(F)(F)F)C1)Cc1cc(F)c(F)cc1F [maleate, sitagliptin maleate], which “change during the hygroscopicity studies” value [2] is on record?
The value was “did not show much change”.

And the “stability (degradation, related substances by HPLC)” value ([4]; four weeks at 60 °C)?
The value was “showed a degradation”.

What does the source list for N[C@@H](CC(=O)N1CCn2c(nnc2C(F)(F)F)C1)Cc1cc(F)c(F)cc1F [phosphate monohydrate, sitagliptin dihydrogenphosphate, reference compound]?
change during the hygroscopicity studies [2]: did not show much change; stability (degradation, related substances by HPLC) ([4]; two weeks at 60 °C): stable

Which hygroscopicity ([2]; prolonged storage at 93 % relative humidity) does the source give for N[C@@H](CC(=O)N1CCn2c(nnc2C(F)(F)F)C1)Cc1cc(F)c(F)cc1F [sitagliptin hydrochloride, Sitagliptin Hydrochloride Form II] here?
Its hygroscopicity is “not hygroscopic”.

And the “stability (degradation, related substances by HPLC)” value ([4]; four weeks at 60 °C)?
Its value is “excellent stability”.

And the pH (pH of aqueous solution)?
Its pH is 5.8 ± 0.1.

Which results are given for N[C@@H](CC(=O)N1CCn2c(nnc2C(F)(F)F)C1)Cc1cc(F)c(F)cc1F [sulfate (non solvated), Sitagliptin Sulfate Form II]?
change during the hygroscopicity studies ([2]; listed as sitagliptin sulfate (non solvated)): increase in water content corresponding to conversion of hemihydrate to dihydrate; stability (degradation, related substances by HPLC) ([4]; four weeks at 60 °C, listed as sitagliptin hemisulphate): excellent stability; stability (degradation, related substances by HPLC) ([4]; two weeks at 60 °C): stable; solubility in water [5]: very high solubility in water

With “Amorphous Sitagliptin Citrate [citrate (amorphous)]” as the compound, how does the “solid form conversion on humidity storage” value ([2]; two weeks storage at 93% relative humidity) read?
The value was “partial conversion into the respective crystalline form”.

And the “Dissolution in capsule in pH 6.8 buffer at 50 rpm at 10 min (% release as free base)” value [1]?
Its value is 62.4%.

And the “Dissolution in capsule in pH 6.8 buffer at 50 rpm at 30 min (% Release as free base)” value [1]?
Its value is 89.47%.

And the “Dissolution in capsule in water medium at 50 rpm at 10 min (% release as free base)” value [1]?
Its value is 75.89%.

What about the “Dissolution in capsule in water medium at 50 rpm at 30 min (% release as free base)” value [1] of the same compound?
The value was 94.23%.

For “Sitagliptin Fumarate Form I [D:Fumarate I]”, which “Hygroscopicity (water content)” value ([2]; 2 weeks 43 % rh) is on record?
Its value is 1.058%.

What about the “Hygroscopicity (water content)” value ([2]; 2 weeks 75 % rh) of the same compound?
Its value is 1.078%.

What about the “Hygroscopicity (water content)” value ([2]; 2 weeks 93 % rh) of the same compound?
The value was 1.168%.

And the “change during the hygroscopicity studies” value [2]?
The value was “did not show much change”.

What about the Initial water content ([2]; before humidity storage) of the same compound?
Its Initial water content is 0.89%.

And the “Initial Related Substances” value [4]?
The value was 0%.

What about the “Related Substances 4 w 40°C/75 % RH closed” value [6] of the same compound?
The value was 0.07%.

And the “Related Substances 12 weeks 40°C/75 % RH closed bottle” value [6]?
Its value is 0.13%.

What about the “Related Substances 2 W 40°C/75 % RH open” value [6] of the same compound?
Its value is 0.01%.

And the “Related Substances 4 w 40°C/75 % RH open” value [6]?
Its value is 0.06%.

And the “Related Substances 12 weeks 40°C/75 % RH open bottle” value [6]?
The value was 0.11%.

What about the “Related Substances 2 W 60°C closed” value [6] of the same compound?
The value was 0.01%.

What about the “Related Substances 4 w 60°C Closed bottle” value [6] of the same compound?
Its value is 0.03%.

Which results are given for Sitagliptin Malate?
change during the hygroscopicity studies [2]: did not show much change; Dissolution in capsule in pH 6.8 buffer at 50 rpm at 10 min (% release as free base) [1]: 84.72%; Dissolution in capsule in pH 6.8 buffer at 50 rpm at 30 min (% Release as free base) [1]: 90.94%; Dissolution in capsule in water medium at 50 rpm at 10 min (% release as free base) [1]: 90.22%; Dissolution in capsule in water medium at 50 rpm at 30 min (% release as free base) [1]: 98.89%

Which “Hygroscopicity (water content)” value ([2]; 2 weeks 43 % rh) does the source give for “Sitagliptin succinate Form I [F: Succinate I]” here?
The value was 1.36%.

And the “Hygroscopicity (water content)” value ([2]; 2 weeks 75 % rh)?
The value was 1.78%.

And the “Hygroscopicity (water content)” value ([2]; 2 weeks 93 % rh)?
Its value is 19.58** %.

And the Initial water content ([2]; before humidity storage)?
The Initial water content was 0.90%.

And the “Initial Related Substances” value [4]?
Its value is 0.14%.

What about the “Related Substances 4 w 40°C/75 % RH closed” value [6] of the same compound?
The value was 0.29%.

And the “Related Substances 12 weeks 40°C/75 % RH closed bottle” value [6]?
Its value is 0.23%.

And the “Related Substances 2 W 40°C/75 % RH open” value [6]?
Its value is 0.13%.

What about the “Related Substances 4 w 40°C/75 % RH open” value [6] of the same compound?
Its value is 0.25%.

And the “Related Substances 12 weeks 40°C/75 % RH open bottle” value [6]?
Its value is 0.16%.

And the “Related Substances 2 W 60°C closed” value [6]?
The value was 0.30%.

What about the “Related Substances 4 w 60°C Closed bottle” value [6] of the same compound?
Its value is 0.58%.
